Measured values published in patent US20230399311A1, “POLYMORPHS OF SUBSTITUTED ISOQUINOLINE-BASED RHO KINASE INHIBITORS” (BioAxone BioSciences, Inc., priority 2022, published 2023).
Values after ≈ are worked out from the molar mass of the structure shown. Values joined by “and” are separate entries in the source; they are usually repeats but may differ in a detail not shown here. Identical values can stand only once. Like-named read-outs stand apart in the source and are kept apart here. Blank lines part the entries; values can stand above or below the compound they belong to.

Experiments:
[1] = Solubility of Form A in various solvents at 25° C. and 50° C.; format: physicochemical; conditions: thermodynamic from solid
Description: The solubility of Form A of Compound 1 was evaluated at 25° C. and 50° C. in various solvents.

[2] = pKa by iterative titration with 1M sodium hydroxide; format: physicochemical; conditions: free base form; for pKa: Measurements #1-#3
Description: The pKa of NRL-1049 in free base form was measured in triplicate by iterative titration with 1M sodium hydroxide solution. A plot of the pH versus the volume of the titrant was used to calculate the pKa, wherein the pKa was taken as 50% of the inflection point.

solubility ([1]; 1,4-dioxane, 25 °C, organic solvent or mixture, read-out: Solubility at 25° C.): 1500 µg/mL (≈ 4.7 mM)
solubility ([1]; 1,4-dioxane, 50 °C, organic solvent or mixture, read-out: Solubility at 50° C.): 11900 µg/mL (≈ 37.3 mM)
solubility ([1]; 2-methoxyethanol, 25 °C, organic solvent or mixture, read-out: Solubility at 25° C.): > 50000 µg/mL
solubility ([1]; 2-methoxyethanol, 50 °C, organic solvent or mixture, read-out: Solubility at 50° C.): > 50000 µg/mL
solubility ([1]; acetone, 25 °C, organic solvent or mixture, read-out: Solubility at 25° C.): 15900 µg/mL (≈ 49.8 mM)
solubility ([1]; acetone, 50 °C, organic solvent or mixture, read-out: Solubility at 50° C.): 45300 µg/mL (≈ 142 mM)
solubility ([1]; acetonitrile, 25 °C, organic solvent or mixture, read-out: Solubility at 25° C.): < 1000 µg/mL
solubility ([1]; acetonitrile, 50 °C, organic solvent or mixture, read-out: Solubility at 50° C.): < 1000 µg/mL
solubility ([1]; benzyl alcohol, 25 °C, organic solvent or mixture, read-out: Solubility at 25° C.): 156000 µg/mL (≈ 488 mM)
solubility ([1]; chloroform, 25 °C, organic solvent or mixture, read-out: Solubility at 25° C.): > 50000 µg/mL
solubility ([1]; chloroform, 50 °C, organic solvent or mixture, read-out: Solubility at 50° C.): > 50000 µg/mL
solubility ([1]; dichloromethane, 25 °C, organic solvent or mixture, read-out: Solubility at 25° C.): < 1000 µg/mL
solubility ([1]; dichloromethane, 50 °C, organic solvent or mixture, read-out: Solubility at 50° C.): < 1000 µg/mL
solubility ([1]; dimethyl sulfoxide, 25 °C, organic solvent or mixture, read-out: Solubility at 25° C.): > 50000 µg/mL
solubility ([1]; dimethyl sulfoxide, 50 °C, organic solvent or mixture, read-out: Solubility at 50° C.): > 50000 µg/mL
solubility ([1]; dimethylformamide, 25 °C, organic solvent or mixture, read-out: Solubility at 25° C.): 39300 µg/mL (≈ 123 mM)
solubility ([1]; dimethylformamide, 50 °C, organic solvent or mixture, read-out: Solubility at 50° C.): > 50000 µg/mL
solubility ([1]; ethanol, 25 °C, organic solvent or mixture, read-out: Solubility at 25° C.): 12300 µg/mL (≈ 38.5 mM)
solubility ([1]; ethanol, 50 °C, organic solvent or mixture, read-out: Solubility at 50° C.): 25300 µg/mL (≈ 79.2 mM)
solubility ([1]; ethyl acetate, 25 °C, organic solvent or mixture, read-out: Solubility at 25° C.): < 1000 µg/mL
solubility ([1]; ethyl acetate, 50 °C, organic solvent or mixture, read-out: Solubility at 50° C.): < 1000 µg/mL
solubility ([1]; ethyl formate, 25 °C, organic solvent or mixture, read-out: Solubility at 25° C.): 13700 µg/mL (≈ 42.9 mM)
solubility ([1]; ethyl formate, 50 °C, organic solvent or mixture, read-out: Solubility at 50° C.): > 50000 µg/mL
solubility ([1]; iso-butyl acetate, 25 °C, organic solvent or mixture, read-out: Solubility at 25° C.): < 1000 µg/mL
solubility ([1]; iso-butyl acetate, 50 °C, organic solvent or mixture, read-out: Solubility at 50° C.): < 1000 µg/mL
solubility ([1]; iso-propanol, 25 °C, organic solvent or mixture, read-out: Solubility at 25° C.): 500 µg/mL (≈ 1.57 mM)
solubility ([1]; iso-propanol, 50 °C, organic solvent or mixture, read-out: Solubility at 50° C.): 14700 µg/mL (≈ 46 mM)
solubility ([1]; iso-propyl acetate, 25 °C, organic solvent or mixture, read-out: Solubility at 25° C.): < 1000 µg/mL
solubility ([1]; iso-propyl acetate, 50 °C, organic solvent or mixture, read-out: Solubility at 50° C.): < 1000 µg/mL
solubility ([1]; medium chain triglyceride, 25 °C, oil or lipid, read-out: Solubility at 25° C.): 100 µg/mL (≈ 0.313 mM)
solubility ([1]; methanol, 25 °C, organic solvent or mixture, read-out: Solubility at 25° C.): > 50000 µg/mL
solubility ([1]; methanol, 50 °C, organic solvent or mixture, read-out: Solubility at 50° C.): > 50000 µg/mL
solubility ([1]; methyl ethyl ketone, 25 °C, organic solvent or mixture, read-out: Solubility at 25° C.): < 1000 µg/mL
solubility ([1]; methyl ethyl ketone, 50 °C, organic solvent or mixture, read-out: Solubility at 50° C.): 1500 µg/mL (≈ 4.7 mM)
solubility ([1]; methyl iso-butyl ketone, 25 °C, organic solvent or mixture, read-out: Solubility at 25° C.): < 1000 µg/mL
solubility ([1]; methyl iso-butyl ketone, 50 °C, organic solvent or mixture, read-out: Solubility at 50° C.): < 1000 µg/mL
solubility ([1]; n-butyl alcohol, 25 °C, organic solvent or mixture, read-out: Solubility at 25° C.): 1600 µg/mL (≈ 5.01 mM)
solubility ([1]; n-butyl alcohol, 50 °C, organic solvent or mixture, read-out: Solubility at 50° C.): 7500 µg/mL (≈ 23.5 mM)
solubility ([1]; n-propanol, 25 °C, organic solvent or mixture, read-out: Solubility at 25° C.): 1600 µg/mL (≈ 5.01 mM)
solubility ([1]; n-propanol, 50 °C, organic solvent or mixture, read-out: Solubility at 50° C.): 23400 µg/mL (≈ 73.3 mM)
solubility ([1]; o-xylene, 25 °C, organic solvent or mixture, read-out: Solubility at 25° C.): < 1000 µg/mL
solubility ([1]; o-xylene, 50 °C, organic solvent or mixture, read-out: Solubility at 50° C.): < 1000 µg/mL
solubility ([1]; polyethylene glycol 300, 25 °C, organic solvent or mixture, read-out: Solubility at 25° C.): 11000 µg/mL (≈ 34.4 mM)
solubility ([1]; propylene glycol, 25 °C, organic solvent or mixture, read-out: Solubility at 25° C.): 84000 µg/mL (≈ 263 mM)
solubility ([1]; sesame oil, 25 °C, oil or lipid, read-out: Solubility at 25° C.): 40 µg/mL (≈ 0.125 mM)
solubility ([1]; tert-butyl methyl ether, 25 °C, organic solvent or mixture, read-out: Solubility at 25° C.): < 1000 µg/mL
solubility ([1]; tert-butyl methyl ether, 50 °C, organic solvent or mixture, read-out: Solubility at 50° C.): < 1000 µg/mL
solubility ([1]; tetrahydrofuran, 25 °C, organic solvent or mixture, read-out: Solubility at 25° C.): 1600 µg/mL (≈ 5.01 mM)
solubility ([1]; tetrahydrofuran, 50 °C, organic solvent or mixture, read-out: Solubility at 50° C.): 2000 µg/mL (≈ 6.26 mM)
solubility ([1]; toluene, 25 °C, organic solvent or mixture, read-out: Solubility at 25° C.): < 1000 µg/mL
solubility ([1]; toluene, 50 °C, organic solvent or mixture, read-out: Solubility at 50° C.): < 1000 µg/mL
solubility ([1]; water, 25 °C, water, read-out: Solubility at 25° C.): > 50000 µg/mL
solubility ([1]; water, 50 °C, water, read-out: Solubility at 50° C.): > 50000 µg/mL
Compound: C[C@@H](N)C1CCN(S(=O)(=O)c2cccc3cnccc23)CC1 [NRL-1049 (R), (R)-1-(1-(isoquinolin-5-ylsulfonyl)piperidin-4-yl)ethan-1-amine]

pKa average ([2]; Sample 1): 1.8
pKa ([2]; Sample 1): 1.73 and 1.81 and 1.83
pKa average ([2]; Sample 2): 2.0
pKa average ([2]; Sample 3): 1.9
pKa ([2]; Sample 3): 1.89 and 1.87 and 1.98
Compound: CC(N)C1CCN(S(=O)(=O)c2cccc3cnccc23)CC1 (stereo not shown) [NRL-1049]
